Source: ChEMBL document CHEMBL4261544, “Structure-metabolism-relationships in the microsomal clearance of piperazin-1-ylpyridazines” (Medchemcomm, 2017)

Columns and labels:
[1] = Half life in mouse liver microsomes at 10 uM in presence of NADPH by LC-MS/MS analysis; type: ADME, microsome; settings: for half-life at 10 µM: liver microsomes
[2] = Extraction ratio in mouse liver microsomes at 10 uM in presence of NADPH by LC-MS/MS analysis; type: ADME, microsome; settings: read-out: ERH
[3] = Drug metabolism in mouse liver microsomes assessed as oxidation at benzene ring C at 10 uM in presence of NADPH after 30 to 60 mins by LC-MS/MS analysis; type: ADME, microsome
[4] = Drug metabolism in mouse liver microsomes assessed as oxidation at benzene ring B at 10 uM in presence of NADPH after 30 to 60 mins by LC-MS/MS analysis; type: ADME, microsome
[5] = Drug metabolism in mouse liver microsomes assessed as oxidation at benzene ring A at 10 uM in presence of NADPH after 30 to 60 mins by LC-MS/MS analysis; type: ADME, microsome
[6] = Drug metabolism in mouse liver microsomes assessed as oxidation at benzene ring D at 10 uM in presence of NADPH after 30 to 60 mins by LC-MS/MS analysis; type: ADME, microsome
[7] = Half life in human liver microsomes at 10 uM in presence of NADPH by LC-MS/MS analysis; type: ADME, microsome; settings: for half-life at 10 µM: liver microsomes
[8] = Extraction ratio in human liver microsomes at 10 uM in presence of NADPH by LC-MS/MS analysis; type: ADME, microsome; settings: read-out: ERH
[9] = Aqueous solubility in pH 7.4 PBS buffer; type: physicochemical
[10] = Metabolic stability in mouse liver microsomes assessed as parent compound remaining at 10 uM in presence of NADPH after 60 mins by LC-MS/MS analysis; type: ADME, microsome; settings: 1 h
[11] = Drug metabolism in human liver microsomes assessed as 6-(4-(o-tolylsulfonyl)piperazin-1-yl)pyridazine-3-carboxamide formation at 10 uM in presence of NADPH after 60 mins by LC-MS/MS analysis; type: ADME, microsome; settings: 1 h
[12] = Metabolic stability in human liver microsomes assessed as parent compound remaining at 10 uM in presence of NADPH after 60 mins by LC-MS/MS analysis; type: ADME, microsome; settings: 1 h
[13] = Drug level in human liver microsomes treated with N-benzyl-6-(4-(o-tolylsulfonyl)piperazin-1-yl)pyridazine-3-carboxamide at 10 uM in presence of NADPH after 60 mins by LC-MS/MS analysis; type: ADME, microsome; settings: 1 h
[14] = Drug level in mouse liver microsomes treated with N-benzyl-6-(4-(o-tolylsulfonyl)piperazin-1-yl)pyridazine-3-carboxamide at 10 uM in presence of NADPH after 60 mins by LC-MS/MS analysis; type: ADME, microsome; settings: 1 h

Row | half-life at 10 µM [1] | hepatic extraction ratio at 10 µM [2] | half-life at 10 µM [7] | hepatic extraction ratio at 10 µM [8] | Compound | also measured
1 | 12 min | 0.84 | – | – | O=C(NCc1ccc(F)cc1)c1ccc(N2CCN(S(=O)(=O)c3ccc(F)cc3C(F)(F)F)CC2)nn1 | Drug metabolism [3]: Metabolite_Detected; Drug metabolism [4]: Metabolite_Detected; Drug metabolism [5]: Metabolite_Notdetected; Drug metabolism [6]: Metabolite_Detected
2 | 13 min | – | – | – | O=C(NCc1ccc(F)cc1)c1ccc(N2CCN(S(=O)(=O)c3cccnc3Cl)CC2)nn1 | –
3 | 5 min | – | – | – | N#Cc1ncccc1S(=O)(=O)N1CCN(c2ccc(C(=O)NCc3ccc(F)cc3)nn2)CC1 | –
4 | 31 min | 0.66 | – | – | O=C(NCc1ccc(F)cc1)c1ccc(N2CCN(S(=O)(=O)c3ccccc3C(F)(F)F)CC2)nn1 | Drug metabolism [3]: Metabolite_Detected; Drug metabolism [4]: Metabolite_Detected; Drug metabolism [5]: Metabolite_Notdetected; Drug metabolism [6]: Metabolite_Detected
5 | 8 min | – | – | – | Cc1ncccc1S(=O)(=O)N1CCN(c2ccc(C(=O)NCc3ccc(F)cc3)nn2)CC1 | –
6 | 68 min | 0.47 | 12 min | 0.78 | Cc1ccc(F)cc1S(=O)(=O)N1CCN(c2ccc(C(=O)NCc3ccc(F)cc3)nn2)CC1 | solubility [9]: Insoluble
7 | – | 0.97 | – | 0.93 | Cc1ccccc1S(=O)(=O)N1CCN(c2ccc(C(=O)NCc3ccccc3)nn2)CC1 | t1/2 ([1]; microsomes, 10 µM): 2 min; t1/2 ([7]; microsomes, 10 µM): 3 min; Stability [10]: 42%; Drug metabolism [11]: Metabolite_Notdetected; Stability [12]: 62%
8 | 72 min | – | – | – | O=C(NCc1ccc(F)cc1)c1ccc(N2CCN(S(=O)(=O)c3cccnc3O)CC2)nn1 | –
9 | 3 min | 0.95 | 2 min | 0.95 | Cc1ccccc1S(=O)(=O)N1CCN(c2cnc(C(=O)NCc3ccc(F)cc3)cn2)CC1 | –
10 | 23 min | – | – | – | Cc1nc(C(F)(F)F)ccc1S(=O)(=O)N1CCN(c2ccc(C(=O)NCc3ccc(F)cc3)nn2)CC1 | –
11 | 26 min | 0.7 | 34 min | 0.56 | Cc1ccccc1S(=O)(=O)N1CCN(c2ccc(C(=O)NCc3ccc(F)cc3)nn2)CC1 | –
12 | 2 min | 0.98 | 1 min | 0.97 | Cc1ccccc1S(=O)(=O)N1CC2(CN(c3ccc(C(=O)NCc4ccc(F)cc4)nn3)C2)C1 | –
13 | 15 min | 0.8 | – | – | Cc1cc(F)ccc1S(=O)(=O)N1CCN(c2ccc(C(=O)NCc3ccc(F)cc3)nn2)CC1 | –
14 | 6 min | – | – | – | O=C(NCc1ccc(F)cc1)c1ccc(N2CCN(S(=O)(=O)c3cccnc3C3CC3)CC2)nn1 | –
15 | 19 min | – | – | – | Nc1ncccc1S(=O)(=O)N1CCN(c2ccc(C(=O)NCc3ccc(F)cc3)nn2)CC1 | –

Continued, molecule first:

Row | Compound | half-life at 10 µM [1] | hepatic extraction ratio at 10 µM [2] | half-life at 10 µM [7] | hepatic extraction ratio at 10 µM [8] | also measured
16 | O=C(NCc1ccccc1)c1ccc(N2CCN(S(=O)(=O)c3ccccc3Cl)CC2)nn1 | 2 min | 0.97 | 5 min | 0.89 | –
17 | Cc1ccccc1S(=O)(=O)N1CCN(c2ccc(C(=O)NCc3cccs3)nn2)CC1 | 2 min | 0.97 | 4 min | 0.92 | –
18 | O=C(NCc1ccc(F)cc1)c1ccc(N2CC3(C2)CN(S(=O)(=O)c2cccnc2Cl)C3)nn1 | 113 min | – | 0.35 min | 0.29 | –
19 | O=C(NCc1ccccc1)c1ccc(N2CCN(S(=O)(=O)c3cccc(Cl)c3Cl)CC2)nn1 | 14 min | 0.81 | 16 min | 0.73 | –
20 | O=C(NCc1ccccc1)c1ccc(N2CCC(S(=O)(=O)c3cccc(Cl)c3Cl)CC2)nn1 | 20 min | 0.75 | 27 min | 0.61 | –
21 | Cc1ccccc1S(=O)(=O)N1CCN(c2ccc(C(=O)NCc3cncs3)nn2)CC1 | 18 min | 0.77 | 30 min | 0.59 | –
22 | O=C(NCc1ccc(F)cc1)c1ccc(N2CCN(S(=O)(=O)c3cccnc3N3CCOCC3)CC2)nn1 | 2 min | – | – | – | –
23 | N#Cc1ncccc1S(=O)(=O)N1CCN(c2ccc(C(=O)NCc3ccc(F)cc3)[n+]([O-])n2)CC1 | 16 min | – | – | – | –
24 | Cc1ccccc1S(=O)(=O)N1CC=C(c2ccc(C(=O)NCc3ccc(F)cc3)nn2)CC1 | 5 min | 0.94 | 2 min | 0.96 | –
25 | Cc1ccccc1S(=O)(=O)N1CCN(c2ccc(C(N)=O)nn2)CC1 | – | – | – | – | Drug metabolism [13]: Metabolite_Detected; Drug metabolism [14]: Metabolite_Detected
